Experimental data from ChEMBL document CHEMBL1128943, “Small peptidic aldehyde inhibitors of human rhinovirus 3C protease” (Bioorg Med Chem Lett, 1996).
Where a SMILES comes first, the peptide text is derived from it. [ ]: non-standard residue; d: D form. The star is where a group is joined. Met(O2) = CS(=O)(=O)CC[C@H](N)C(=O)O; hPhe = N[C@@H](CCc1ccccc1)C(=O)O; Cbz = O=C(OCc1ccccc1)*; Boc = CC(C)(C)OC(=O)*

What was measured:
Human rhinovirus sp. = assay: Antiviral activity against human rhinovirus-14 in HeLa cells; assay type: functional, organism-based
HeLa = assay: Cytotoxic activity against HeLa cells using XTT assay.; assay type: functional; conditions: Homo sapiens, read-out: TC50 (the source's name)

For `CS(=O)(=O)CC[C@@H](C=O)NC(=O)[C@H](Cc1ccccc1)NC(=O)OCc1ccccc1`, the IC50 (Human rhinovirus sp.) was 3.4 µM and the CC50 (HeLa) was greater than 224 µM.
`NC(=O)CC[C@@H](C=O)NC(=O)[C@H](Cc1ccccc1)NC(=O)OCc1ccccc1` was tested, and the IC50 (Human rhinovirus sp.) was 42 µM and the CC50 (HeLa) was greater than 224 µM.
`CSCC[C@@H](C=O)NC(=O)[C@H](CC(C)C)NC(=O)[C@H](CC(C)C)NC(C)=O` (Ac-Leu-Leu-Met-aldehyde) was tested, and the IC50 (Human rhinovirus sp.) was 23.7 µM and the CC50 (HeLa) was 37.1 µM.
For `CC(=O)N[C@@H](CC(C)C)C(=O)N[C@@H](CC(C)C)C(=O)N[C@H](C=O)CCS(C)(=O)=O` (Ac-Leu-Leu-[Met(O2)]-aldehyde), the IC50 (Human rhinovirus sp.) was 81.9 µM and the CC50 (HeLa) was greater than 224 µM.
Molecule `CSCC[C@@H](C=O)NC(=O)[C@H](Cc1ccccc1)NC(=O)OC(C)(C)C` (Boc-Phe-Met-aldehyde) has an IC50 (Human rhinovirus sp.) of 84.1 µM and a CC50 (HeLa) of 65.4 µM.
Work on `CC(C)(C)OC(=O)N[C@@H](Cc1ccccc1)C(=O)N[C@H](C=O)CCS(C)(=O)=O` (Boc-Phe-[Met(O2)]-aldehyde) yielded an IC50 (Human rhinovirus sp.) of 71.3 µM and a CC50 (HeLa) of 148 µM.
Molecule `CC(C)C[C@H](NC(=O)[C@@H](NC(=O)OC(C)(C)C)C(C)C)C(=O)N[C@@H](Cc1ccccc1)C(=O)N[C@H](C=O)CCC(N)=O` (Boc-VLFQ-aldehyde) has an IC50 (Human rhinovirus sp.) of 400 µM and a CC50 (HeLa) of 0.6 µM.
Work on `CSCC[C@@H](C=O)NC(=O)[C@H](CC(C)C)NC(=O)OCc1ccccc1` (Cbz-Leu-Met-aldehyde) yielded an IC50 (Human rhinovirus sp.) of 46.8 µM and a CC50 (HeLa) of 83 µM.
Molecule `CC(C)C[C@H](NC(=O)OCc1ccccc1)C(=O)N[C@H](C=O)CCS(C)(=O)=O` (Cbz-Leu-[Met(O2)]-aldehyde) has an IC50 (Human rhinovirus sp.) of 39.3 µM and a CC50 (HeLa) greater than 224 µM.
In the case of `CSCC[C@@H](C=O)NC(=O)[C@H](Cc1ccccc1)NC(=O)OCc1ccccc1` (Cbz-Phe-Met-aldehyde), the IC50 (Human rhinovirus sp.) is reported as 9.7 µM and the CC50 (HeLa) is reported as 42.2 µM.
`CSCC[C@@H](C=O)NC(=O)[C@H](CCc1ccccc1)NC(=O)OCc1ccccc1` (Cbz-[hPhe]-Met-aldehyde) gave an IC50 (Human rhinovirus sp.) of 20.3 µM and a CC50 (HeLa) of 13.5 µM.
Molecule `CS(=O)(=O)CC[C@@H](C=O)NC(=O)[C@H](CCc1ccccc1)NC(=O)OCc1ccccc1` (Cbz-[hPhe]-[Met(O2)]-aldehyde) has an IC50 (Human rhinovirus sp.) of 81.2 µM and a CC50 (HeLa) of 162 µM.
`CS(=O)(=O)CC[C@@H](C=O)NC(=O)C(Cc1ccccc1)NC(=O)OCc1ccccc1` (single isomer, unassigned) gave an IC50 (Human rhinovirus sp.) greater than 224 µM and a CC50 (HeLa) greater than 224 µM.
With `CCCC[C@@H](C=O)NC(=O)[C@H](CC(C)C)NC(=O)OCc1ccccc1` [CALPEPTIN] the IC50 (Human rhinovirus sp.) was 17.7 µM and the CC50 (HeLa) was 22.1 µM.
`CC(=O)N[C@@H](CC(C)C)C(=O)N[C@@H](CC(C)C)C(=O)N[C@H](C=O)CCCNC(=N)N` [LEUPEPTIN] gave an IC50 (Human rhinovirus sp.) greater than 224 µM and a CC50 (HeLa) greater than 224 µM.
